Earlier results on two substances are cited in US9475888B2, “Non anti-coagulative glycosaminoglycans comprising repeating disaccharide unit and their medical use” (DILAFOR AB, priority 2011, dated 2016).

The conditions of series [1]: species not specified.
Another series concerns uterus. To be noted: Acta Obstetricia et Gynecologica, 2010; 89:147-150.
The test system of a further series is protracted labor. Particulars: women receiving prophylaxis for deep venous thrombosis.

With Heparin, the “corresponding bioavailability (subcutaneous)” value in series [1] is “about 10%”.
As for dalteparin, the “contractility of the uterus” value in the series with uterus is listed as “increase”. The protracted labor result in the series with protracted labor is “decrease”.
